PMC9127750, “Structure-based design of CDC42 effector interaction inhibitors for the treatment of cancer” (Cell reports, 2022)
Several values for one entry are separate records, joined by “and”; a condition that tells them apart may be missing. Equal entries are not always repeated.

System: WM3248 melanoma cells, 486 antibodies
Assay: Reverse phase protein arrays (RPPA)
Assay type: cell-based, Human
Description: Pellets were snap frozen in liquid nitrogen and shipped to MD Anderson Cancer Center core RPPA facility for RPPA analysis (Table S5). Three biological replicates for each sample were generated.
Nomenclatures on the RPPA heatmaps: name_of_antibody.species_of_antibody.status_of_antibody. V - antibody validated; C - validation of antibody in progress; Q - antibody nonspecific; E – under evaluation; antibodies raised in M - mouse, G - goat, R - rabbit, or T - rat.

## CN(C)c1cccc(Nc2cc(-c3ccccc3)nc(C3CCNCC3)n2)c1 [ARN22089, N1,N1-dimethyl-N3-(6-phenyl-2-(piperidin-4-yl)pyrimidin-4-yl)benzene-1,3-diamine]
Norm_5 Average
  Caspase.8.cleaved.R.C normalized signal: 0.982
  Caveolin.1.R.V normalized signal: 0.855
  Cdc6.R.V normalized signal: 0.979
  Cdc42.R.C normalized signal: 1.009
  Chk1.M.C normalized signal: 0.909
  Chk2.M.V normalized signal: 0.853
  Chk2_pT68.R.C normalized signal: 1.060
  Claudin.7.R.V normalized signal: 0.926
  Collagen.VI.R.V normalized signal: 1.116
  Complex.II.Subunit.M.V normalized signal: 0.975
  Cox2.R.C normalized signal: 1.135
  Cox.IV.R.V normalized signal: 1.022
  CtIP.R.V normalized signal: 0.975
  Cyclin.B1.R.V normalized signal: 0.972
  Cyclin.D3.M.V normalized signal: 0.904
  Cyclin.E1.R.V normalized signal: 0.936
  DAPK1_pS308.M.C normalized signal: 1.256
  DDB.1.R.V normalized signal: 1.059
  DDR1_pY513.R.C normalized signal: 0.981
  DM.K9.Histone.H3.M.V normalized signal: 0.933
  DNA.Ligase.IV.R.C normalized signal: 1.034
  DNA_POLG.R.V normalized signal: 0.987
  c.Jun_pS73.R.V normalized signal: 0.785
  c.Met_pY1234_Y1235.R.V normalized signal: 1.005
  c.Myc.R.C normalized signal: 1.002
  cdc2_pY15.R.C normalized signal: 1.020
  cdc25C.R.V normalized signal: 0.901
Norm_5 replicates
  C.Raf.R.C normalized signal: 0.928 and 0.922 and 1.015
  C.Raf_pS338.R.V normalized signal: 1.100 and 1.059 and 1.133
  CA9.R.C normalized signal: 0.890 and 0.944 and 0.999
  CD2.M.C normalized signal: 0.910 and 0.933 and 1.035
  CD4.R.V normalized signal: 1.047 and 1.004 and 1.101
  CD5.M.C normalized signal: 0.985 and 1.051
  CD20.R.C normalized signal: 0.992 and 1.004 and 0.765
  CD26.R.V normalized signal: 0.918 and 1.107 and 0.927
  CD29.M.V normalized signal: 0.891 and 0.950 and 1.049
  CD31.M.V normalized signal: 0.904 and 0.900 and 1.048
  CD38.R.C normalized signal: 0.928
  CD44.R.C normalized signal: 0.917 and 1.058 and 0.855
  CD45.M.V normalized signal: 0.930 and 1.021
  CD49b.M.V normalized signal: 0.968 (2×) and 1.000
  CD68.M.C normalized signal: 0.960 and 0.996 and 0.977
  CD74.M.V normalized signal: 0.856 and 0.898 and 1.027
  CD134.R.V normalized signal: 0.925 and 0.944
  CD171.M.V normalized signal: 0.619 and 0.917 and 0.812
  CDK1_pT14.R.C normalized signal: 0.861 and 1.206
  CDK9.R.V normalized signal: 0.898 and 0.959 and 1.009
  CDKN2A.R.C normalized signal: 0.913 and 0.846 and 1.064
  CDT1.R.V normalized signal: 0.876 and 0.937
  CENP.A.R.V normalized signal: 0.837 and 1.027
  CHD1L.R.V normalized signal: 0.984 and 0.980 and 1.062
  CIITA.R.C normalized signal: 0.906 and 1.032 and 0.908
  COG3.R.V normalized signal: 1.065 and 1.046 and 1.027
  CRABP1.R.C normalized signal: 0.859 and 0.948
  CRABP2.R.V normalized signal: 0.835 and 0.922
  CREB_pS133.R.C normalized signal: 0.973 and 1.049
  CSK.R.C normalized signal: 0.899 and 0.615
  Calnexin.R.V normalized signal: 0.886 and 0.995 and 1.007
  Caspase.3.cleaved.R.C normalized signal: 1.021 and 1.056
  Caspase.7.cleaved..R.C normalized signal: 0.975 and 1.120
  Caspase.8.M.Q normalized signal: 0.995 and 1.011
  Caspase.8.cleaved.R.C normalized signal: 0.959 and 0.968 and 1.018
  Caveolin.1.R.V normalized signal: 0.695 and 1.083 and 0.788
  Cdc6.R.V normalized signal: 1.013 and 0.837
  Cdc42.R.C normalized signal: 0.983 and 0.959
  Chk1.M.C normalized signal: 0.847 and 0.901 and 0.979
  Chk1_pS296.R.V normalized signal: 1.011 and 0.821 and 1.014
  Chk1_pS345.R.C normalized signal: 1.085 and 0.937
  Chk2.M.V normalized signal: 0.877 and 0.935 and 0.746
  Chk2_pT68.R.C normalized signal: 1.018 and 1.050 and 1.112
  Claudin.7.R.V normalized signal: 0.960 and 0.997 and 0.822
  Collagen.VI.R.V normalized signal: 1.125 and 1.077 and 1.148
  Complex.II.Subunit.M.V normalized signal: 0.952 and 1.023
  Connexin.43.R.C normalized signal: 1.236 and 0.956
  Coup.TFII.R.C normalized signal: 1.082 and 1.017
  Cox2.R.C normalized signal: 1.108 and 1.155 and 1.142
  Cox.IV.R.V normalized signal: 1.004 and 1.021
  Creb.R.C normalized signal: 1.017
  CtIP.R.V normalized signal: 1.022 and 0.990 and 0.914
  Cyclin.B1.R.V normalized signal: 0.618 and 1.059 and 1.239
  Cyclin.D1.R.C normalized signal: 0.917 and 1.018
  Cyclin.D3.M.V normalized signal: 0.934 and 0.919 and 0.861
  Cyclin.E1.R.V normalized signal: 0.930 and 0.904 and 0.974
  Cyclophilin.F.M.V normalized signal: 0.842 and 0.856
  D.a.Tubulin.R.V normalized signal: 1.019 and 1.128
  DAPK1_pS308.M.C normalized signal: 1.353 and 1.627 and 0.788
  DAPK2.R.C normalized signal: 1.191 and 1.026
  DDB.1.R.V normalized signal: 1.062 and 0.816 and 1.300
  DDR1.R.V normalized signal: 0.866 and 0.933 and 1.046
  DDR1_pY513.R.C normalized signal: 0.890 and 1.005 and 1.047
  DJ1.R.V normalized signal: 1.019 and 1.054
  DM.Histone.H3.R.V normalized signal: 0.978 and 1.119 and 1.017
  DM.K9.Histone.H3.M.V normalized signal: 0.882 and 0.936 and 0.982
  DNA.Ligase.IV.R.C normalized signal: 1.083 and 0.953
  DNA_POLG.R.V normalized signal: 1.009 and 1.004
  c.Jun_pS73.R.V normalized signal: 0.798 and 0.640 and 0.915
  c.Kit.R.V normalized signal: 1.128 and 0.954
  c.Met_pY1234_Y1235.R.V normalized signal: 0.983 and 1.008 and 1.024
  c.Myc.R.C normalized signal: 0.935 and 1.002
  cGAS.R.V normalized signal: 0.859 and 0.966 and 1.027
  cdc2_pY15.R.C normalized signal: 1.026 and 1.124
  cdc25C.R.V normalized signal: 0.919 and 0.928 and 0.857
Norm_10, normalized to Norm_0
  MYH11.R.C Average: 1.438
  Myosin.IIa.R.C Average: 1.143
  Myosin.IIa_pS1943.R.V Average: 1.250
  Myt1.R.C Average: 0.974
  N.Cadherin.R.V Average: 1.013
  N.Ras.M.V Average: 0.937
  NAPSIN.A.R.C Average: 1.005
  NDRG1_pT346.R.V Average: 1.345
  NDUFB4.R.V Average: 1.030
  NRF2.R.C Average: 0.980
  Notch1.R.V Average: 0.957
  Notch1.cleaved.R.V Average: 0.977
  Notch3.R.C Average: 1.054
  Oct.4.R.C Average: 1.008
  P.Cadherin.R.C Average: 1.101
  PAI.1.M.V Average: 0.931
  PAICS.R.C Average: 0.957
  PAK1.R.V Average: 0.905
  PAK4.R.V Average: 1.019
  PAK_pS474_S602_S560.R.V Average: 1.098
  PAK_pT423_T402.R.C Average: 1.015
  PAR.R.C Average: 1.104
  PARG.R.C Average: 1.019
  PARP.R.V Average: 1.149
  PAX6.R.V Average: 0.956
  PAX8.R.C Average: 1.011
  PCNA.M.C Average: 0.988
  PD.1.R.V Average: 0.998
  PD.L1.R.C Average: 0.960
  PDH.M.V Average: 0.958
  PDK1.R.V Average: 1.058
  PDK1_pS241.R.V Average: 0.934
  PEA.15.R.V Average: 1.020
  PEA.15_pS116.R.V Average: 0.996
  PERK.R.V Average: 1.061
  PHGDH.R.C Average: 0.964
  PHLPP.R.V Average: 1.190
  PI3K.p85.R.C Average: 1.002
  PI3K.p110.a.R.C Average: 0.864
  PI3K.p110.b.M.C Average: 0.990
  PKA.a.R.V Average: 0.941
  PKC.a.b.II_pT638_T641.R.V Average: 0.894
  PKC.b.II_pS660.R.V Average: 0.986
  PKCa.R.V Average: 1.017
  PKM2.R.C Average: 1.046
  PLC.gamma1.R.V Average: 1.192
  PLC.gamma1_pS1248.R.V Average: 1.153
  PLC.gamma2_pY759.R.V Average: 1.003
  PLK1.R.C Average: 0.886
  PMS2.R.V Average: 1.014
  PR.R.V Average: 0.988
  PRAS40.M.C Average: 1.046
  PRAS40_pT246.R.V Average: 1.016
  PRC1_pT481.R.C Average: 1.014
  Patched.R.C Average: 0.952
  Paxillin.R.C Average: 0.862
  Pdcd4.R.C Average: 0.987
  Porin.M.V Average: 1.053
  p21.R.C Average: 0.934
  p27_pT157.R.C Average: 1.162
  p27_pT198.R.V Average: 1.113
